Assay results published in ChEMBL document CHEMBL4665719, “Development of SKI-349, a dual-targeted inhibitor of sphingosine kinase and microtubule polymerization” (Bioorg Med Chem Lett, 2020).
Activity calls are given as the source filed them. The rule behind the calls is not given here.

Assays:
[1] = target: Cyclin-dependent kinase 1 (Homo sapiens) (UniProt P06493); test: Activation of CDK1 in human HL60/VCR cells assessed as activation of caspase 7 at 300 nM after 24 hrs by Western blot analysis; format: cell-based; details: filed as activator
Cyclin-dependent kinase 1 (Homo sapiens), sequence (P06493 whole entry, looked up): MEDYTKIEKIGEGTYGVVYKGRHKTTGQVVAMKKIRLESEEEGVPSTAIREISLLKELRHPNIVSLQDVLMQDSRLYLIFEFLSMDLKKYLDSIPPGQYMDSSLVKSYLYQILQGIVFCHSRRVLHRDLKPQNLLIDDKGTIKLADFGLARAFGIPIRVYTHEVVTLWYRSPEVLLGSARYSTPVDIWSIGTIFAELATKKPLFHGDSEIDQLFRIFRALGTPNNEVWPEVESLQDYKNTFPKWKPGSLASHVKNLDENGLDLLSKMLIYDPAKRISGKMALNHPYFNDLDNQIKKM

[2] = target: Cyclin-dependent kinase 1 (Homo sapiens) (UniProt P06493); test: Activation of CDK1 in human HL60/VCR cells assessed as induction of Bcl2 phosphorylation at Ser70 residue at 300 nM after 24 hrs by Western blot analysis; format: cell-based; details: filed as activator
[3] = target: Cyclin-dependent kinase 1 (Homo sapiens) (UniProt P06493); test: Activation of CDK1 in human HL60/VCR cells assessed as induction of Bcl2 phosphorylation at Ser70 residue at 300 nM after 24 hrs in presence of Ro-3306 by Western blot analysis; format: cell-based
[4] = Effect on hematopoiesis in sub-lethal irradiated C57BL/6J mouse xenografted with […] MLL-AF9 cells assessed as CD45.1+/CD34 cells in spleen at 2.5 mg/kg measured after 6 weeks by flow cytometry analysis (reference value: 90 %); format: ADME, organism-based; details: in vivo, 1008 h
Tubulin beta = test: Binding affinity to beta tubulin in HEK293 cells assessed as disruption of microtubule polymerization by ITDRF-CETSA assay; format: cell-based, Homo sapiens
[5] = Effect on hematopoiesis in sub-lethal irradiated C57BL/6J mouse xenografted with […] MLL-AF9 cells assessed as CD45.1+/CD34 cells in bone marrow at 1 mg/kg measured after 6 weeks by flow cytometry analysis (reference value: 93 %); format: ADME, organism-based; details: in vivo, 1008 h
[6] = Toxicity in sub-lethal irradiated C57BL/6J mouse xenografted with […] MLL-AF9 cells assessed as HCT level at 5 mg/kg measured after 2 weeks (reference value: 45 +/- 1.4 %); format: organism-based; details: in vivo, 336 h
[7] = target: Glycogen synthase kinase-3 alpha (Homo sapiens) (UniProt P49840); test: Inhibition of wild type full length human GSK3A (M1 to S483 residues) expressed in bacterial expression assessed as residual activity at 1 uM by Kinomescan method relative to control
Glycogen synthase kinase-3 alpha (Homo sapiens), sequence (P49840 2-483 limits assumed): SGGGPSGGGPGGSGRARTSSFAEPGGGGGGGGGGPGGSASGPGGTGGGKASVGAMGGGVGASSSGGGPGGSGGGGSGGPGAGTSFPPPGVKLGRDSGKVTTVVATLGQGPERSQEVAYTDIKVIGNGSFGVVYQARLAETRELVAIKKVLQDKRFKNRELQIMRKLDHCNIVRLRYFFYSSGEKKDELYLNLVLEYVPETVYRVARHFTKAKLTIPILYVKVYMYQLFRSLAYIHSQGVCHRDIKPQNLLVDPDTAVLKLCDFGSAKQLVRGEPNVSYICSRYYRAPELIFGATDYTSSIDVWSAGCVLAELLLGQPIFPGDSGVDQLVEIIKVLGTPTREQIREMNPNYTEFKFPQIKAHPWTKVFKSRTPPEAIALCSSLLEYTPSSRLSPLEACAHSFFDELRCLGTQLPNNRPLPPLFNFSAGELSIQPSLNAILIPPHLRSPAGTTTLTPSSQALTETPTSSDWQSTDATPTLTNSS

[8] = Toxicity in sub-lethal irradiated C57BL/6J mouse xenografted with […] MLL-AF9 cells assessed as RBC level at 1 mg/kg measured after 2 weeks (reference value: 9.8 +/- 0.3 10^6/ml); format: organism-based; details: in vivo, 336 h
[9] = target: Tyrosine-protein kinase JAK1 (Homo sapiens) (UniProt P23458); test: Inhibition of wild-type human partial length JAK1 JH2 pseudokinase domain (R537 to D855 residues) expressed in mammalian expression system assessed as residual activity at 1 uM by Kinomescan method relative to control
Tyrosine-protein kinase JAK1 (Homo sapiens), sequence (P23458 whole entry, the tested form may be a part): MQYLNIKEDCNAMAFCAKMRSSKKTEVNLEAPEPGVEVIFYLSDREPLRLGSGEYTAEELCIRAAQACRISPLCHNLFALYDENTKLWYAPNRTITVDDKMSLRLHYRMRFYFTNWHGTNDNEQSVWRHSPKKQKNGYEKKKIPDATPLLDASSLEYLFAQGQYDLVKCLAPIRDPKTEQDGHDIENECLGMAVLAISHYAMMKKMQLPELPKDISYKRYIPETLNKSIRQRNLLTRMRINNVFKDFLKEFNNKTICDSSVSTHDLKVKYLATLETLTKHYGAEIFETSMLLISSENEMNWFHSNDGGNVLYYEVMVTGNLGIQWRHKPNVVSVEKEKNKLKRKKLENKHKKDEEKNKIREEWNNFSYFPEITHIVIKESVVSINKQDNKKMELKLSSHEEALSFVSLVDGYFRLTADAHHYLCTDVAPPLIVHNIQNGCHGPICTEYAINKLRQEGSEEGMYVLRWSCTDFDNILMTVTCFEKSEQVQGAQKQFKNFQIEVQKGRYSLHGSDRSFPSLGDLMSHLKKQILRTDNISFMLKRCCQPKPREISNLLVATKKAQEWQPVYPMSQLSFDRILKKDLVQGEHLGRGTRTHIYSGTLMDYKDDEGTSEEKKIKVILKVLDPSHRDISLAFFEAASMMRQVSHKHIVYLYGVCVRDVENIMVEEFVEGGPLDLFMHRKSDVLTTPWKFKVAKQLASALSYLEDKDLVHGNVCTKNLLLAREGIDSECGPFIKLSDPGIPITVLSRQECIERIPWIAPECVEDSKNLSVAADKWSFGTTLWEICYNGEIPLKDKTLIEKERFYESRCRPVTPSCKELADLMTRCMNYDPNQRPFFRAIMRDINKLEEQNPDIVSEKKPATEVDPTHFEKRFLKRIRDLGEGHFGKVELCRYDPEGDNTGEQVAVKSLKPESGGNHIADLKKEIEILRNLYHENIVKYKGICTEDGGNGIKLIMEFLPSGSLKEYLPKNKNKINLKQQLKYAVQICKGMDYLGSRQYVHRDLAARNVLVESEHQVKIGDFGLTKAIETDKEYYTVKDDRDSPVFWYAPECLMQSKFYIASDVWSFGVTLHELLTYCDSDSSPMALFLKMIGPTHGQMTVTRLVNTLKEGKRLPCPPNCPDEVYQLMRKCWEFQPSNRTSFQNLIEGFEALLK

[10] = target: T1, Sphingosine kinase 2 (Homo sapiens) (UniProt Q9NRA0); test: Binding affinity to SphK2 in HEK293 cells assessed as induction of thermal stabilization at 1 uM and 48.8 to 68.2 degreeC by CETSA-based Western blot analysis; format: cell-based
T1 sequence (whole entry): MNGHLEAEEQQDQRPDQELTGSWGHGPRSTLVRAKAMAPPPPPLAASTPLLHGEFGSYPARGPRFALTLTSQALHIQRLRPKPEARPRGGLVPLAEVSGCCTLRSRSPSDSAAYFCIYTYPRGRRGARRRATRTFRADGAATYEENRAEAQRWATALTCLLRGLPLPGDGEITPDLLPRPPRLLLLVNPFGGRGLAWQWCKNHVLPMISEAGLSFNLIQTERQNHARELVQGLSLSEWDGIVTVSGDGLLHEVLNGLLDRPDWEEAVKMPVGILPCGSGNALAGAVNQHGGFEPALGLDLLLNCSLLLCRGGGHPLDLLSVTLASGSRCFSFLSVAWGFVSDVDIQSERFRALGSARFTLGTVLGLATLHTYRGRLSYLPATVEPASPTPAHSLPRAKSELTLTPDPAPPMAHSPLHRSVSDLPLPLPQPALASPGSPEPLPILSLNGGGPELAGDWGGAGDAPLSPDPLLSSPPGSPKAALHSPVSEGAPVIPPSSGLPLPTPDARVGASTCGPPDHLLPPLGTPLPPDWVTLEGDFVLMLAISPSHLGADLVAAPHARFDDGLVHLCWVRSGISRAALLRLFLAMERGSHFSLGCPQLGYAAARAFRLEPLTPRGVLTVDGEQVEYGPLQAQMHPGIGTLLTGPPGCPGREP

[11] = Toxicity in sub-lethal irradiated C57BL/6J mouse xenografted with […] MLL-AF9 cells assessed as platelet level at 1 mg/kg measured after 2 weeks (reference value: 687 +/- 53 10^3/ml); format: organism-based; details: in vivo, 336 h
Sphingosine kinase 2 = target: T2, Sphingosine kinase 2 (Homo sapiens, UniProt Q9NRA0); test: Binding affinity to SphK2 in HEK293 cells assessed as direct target engagement incubated for 24 hrs followed by thermal denaturation at 61 degreeC by ITDRF-CETSA assay; format: cell-based
T2 sequence (Q9NRA0 whole entry): T1 sequence (whole entry)

[12] = target: T3, Sphingosine kinase 1/2 (Homo sapiens) (UniProt Q9NRA0+Q9NYA1); test: Inhibition of SPHK1/SPHK2 in human HL-60 cells assessed as C18:0 ceramide level assessed per 10^6 cells at 500 nM after 24 hrs by LC-ESI/MS analysis (reference value: 1.6 +/- 0.2 pmol); format: cell-based
T3 sequence (Q9NYA1 whole entry, looked up, one chain of several): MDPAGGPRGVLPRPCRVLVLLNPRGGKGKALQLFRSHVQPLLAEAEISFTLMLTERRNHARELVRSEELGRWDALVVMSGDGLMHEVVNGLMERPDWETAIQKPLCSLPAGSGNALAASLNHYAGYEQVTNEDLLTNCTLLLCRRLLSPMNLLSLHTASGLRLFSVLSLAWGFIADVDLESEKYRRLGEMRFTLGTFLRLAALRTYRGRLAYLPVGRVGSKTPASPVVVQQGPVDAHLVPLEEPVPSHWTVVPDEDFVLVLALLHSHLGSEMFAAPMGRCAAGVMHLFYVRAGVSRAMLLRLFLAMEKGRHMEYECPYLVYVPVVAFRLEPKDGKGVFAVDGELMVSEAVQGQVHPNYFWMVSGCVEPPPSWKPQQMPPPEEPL

[13] = target: Cyclin-dependent kinase 1 (Homo sapiens) (UniProt P06493); test: Activation of CDK1 in human HL-60 cells assessed as induction of Bcl2 phosphorylation at Ser70 residue at 300 nM after 24 hrs in presence of Ro-3306 by Western blot analysis; format: cell-based
[14] = Antitumor activity against human MLL-AF9 xenografted in sub-lethal irradiated C57BL/6J mouse assessed as increase in mouse survival at 1 mg/kg administered every day relative to control; format: functional; details: MLL-AF9, light or radiation study
[15] = target: Cyclin-dependent kinase 1 (Homo sapiens) (UniProt P06493); test: Activation of CDK1 in human HL-60 cells assessed as induction of Bcl2 phosphorylation at Ser70 residue at 300 nM after 24 hrs by Western blot analysis; format: cell-based; details: filed as activator
[16] = target: Cyclin-dependent kinase 1 (Homo sapiens) (UniProt P06493); test: Activation of CDK1 in human HL60/VCR cells assessed as activation of caspase 7 at 300 nM after 24 hrs in presence of Ro-3306 by Western blot analysis; format: cell-based
[17] = Effect on hematopoiesis in sub-lethal irradiated C57BL/6J mouse xenografted with […] MLL-AF9 cells assessed as CD45.1+/CD34 cells in spleen at 5 mg/kg measured after 6 weeks by flow cytometry analysis (reference value: 90 %); format: ADME, organism-based; details: in vivo, 1008 h
[18] = Toxicity in sub-lethal irradiated C57BL/6J mouse xenografted with […] MLL-AF9 cells assessed as platelet level at 5 mg/kg measured after 2 weeks (reference value: 687 +/- 53 10^3/ml); format: organism-based; details: in vivo, 336 h
[19] = target: T3, Sphingosine kinase 1/2 (Homo sapiens); test: Inhibition of SPHK1/SPHK2 in human HL-60 cells assessed as C16:0 ceramide level assessed per 10^6 cells at 500 nM after 24 hrs by LC-ESI/MS analysis (reference value: 33.5 +/- 4.1 pmol); format: cell-based

With `COc1ccc(Nc2nc(N)c(C(=O)c3ccc(OC)c(OC)c3)s2)cc1` the Activity [1] was “Active”, the Activity [2] was “Active” and the Activity [3] was “inactive”. The Activity [4] was 6%, the IC50 (Tubulin beta) was 25 nM and the Activity [5] was 1%. For the same compound, the Activity [6] was 41%, the Activity [7] was 2.5% and the Activity [8] was 9.2 10^6/ml. For the same compound, the Activity [9] was 5.4%, the Activity [10] was “Active” and the Activity [11] was 1193 10^3/ml. The IC50 (Sphingosine kinase 2) was 60 nM, the Activity [12] was 4.7 pmol and the Activity [13] was “inactive”. For the same compound, the survival at 1 mg/kg [14] was 100%, the Activity [15] was “Active” and the Activity [16] was “inactive”. The Activity [17] was 7%, the Activity [18] was 1089 10^3/ml and the Activity [19] was 87 pmol.
